In article PMC9481533, “Structure-based discovery of small molecules that disaggregate Alzheimer’s disease tissue derived tau fibrils in vitro” (Nature Communications, 2022):
Several values for one entry are separate records, joined by “and”; a condition that tells them apart may be missing. Equal entries are not always repeated.

Tests used:
[1] = molecular target: crude AD brain extracts (tau seeds) in HEK293T tau biosensor cells (Homo sapiens, UniProt P10636); test: Tau biosensor cell seeding assay, screen with crude AD brain extracts; format: cell-based; settings: for Number of seeded aggregates in tau biosensor cells (normalized to confluence), Fig. 2e: 10 μM inhibitor on cells, seeds pre-incubated 16–18 h at 4 °C, individual replicates (n=3), DMSO control 10734.9/12808.5/11145.3; for Inhibition of seeding in biosensor cells: 10 μM screen
Excerpt: From the in silico screen, compounds were ranked and 46 were selected for further experimental validation based on the total binding energy of the ligand/fibril complex. The experimental assessment consisted of direct measures of fibril disassembly (Fig. 2d, e and Supplementary Table 3) and assessment of the seeding capability of the products of disassembled AD tau fibrils in a biosensor cell assay. Disaggregating molecules that produce active seeds are undesirable for therapy and are excluded from further study. HEK293T cells expressing CFP- or YFP-fused tau are transduced with exogenous AD tau fibrils. Externally applied AD-tau fibrils then induce the aggregation of the endogenous fluorescent tau, resulting in the formation of FRET-positive intracellular aggregates, visible as bright puncta by fluorescence microscopy (Fig. 2f). Automated image analysis of visible puncta provides an objective quantification of seeded aggregation. […] Although biosensors may be limited in reporting structural characteristics of fibril progeny, they offer exquisitely sensitive measures of tau seeding activity—the ability for fibrils to recruit monomeric protein into fibrillar form, which is thought to be the mechanism for tau spreading in AD.
Human autopsy samples were obtained by the Mayo Clinic Brain Bank and UCLA Pathology Department according to HHS regulations from patients consenting to autopsy. Samples were provided to the researchers of this study as anonymized tissues. For purification of paired helical filaments (PHFs) and straight filaments (SFs) from AD brain tissue, extractions were performed according to the previously published protocol without any modifications. […] For biosensor seeding assays with crude AD brain extracts, fresh-frozen tissue from neuropathologically confirmed AD cases was thawed and cut into a 0.2–0.3 g sections. Tissue was manually homogenized in a 15 ml disposable tube in 1 ml of 50 mM Tris, pH 7.4 with 150 mM NaCl, and then aliquoted to PCR tubes and sonicated in a cuphorn bath for 120 min under 30% power at 4 °C in a recirculating ice water bath, according to reference.
HEK293T cell lines stably expressing tau-K18 P301S-eYFP were obtained from Marc Diamond[25] and used without further characterization or authentication. […] Inhibitors were dissolved in DMSO. […] After twenty minutes, 10 µl of fibrils were added to 90 µl of tau biosensor cells. The number of seeded aggregates was determined by imaging the entire well of a 96-well plate in triplicate using a Celigo Image Cytometer (Nexcelom) in the YFP channel. The number of aggregates in a given image was determined using an ImageJ 2.3.0[50] script, which subtracts the background fluorescence from unseeded cells, and then counts the number of aggregates as peaks with fluorescence above the background using the built-in Particle Analyzer. The number of aggregates was normalized to the confluence of each well, and dose-response plots were generated by calculating the average and standard deviations from triplicate measurements.

[2] = molecular target: T1, AD brain-derived tau fibrils (Homo sapiens, UniProt P10636); test: Negative stain EM and quantitative EM (qEM) of tau fibrils after compound treatment; format: biochemical
Method: Negatively stained EM Grids were prepared by depositing 6 µl of sample on formvar/carbon-coated copper grids (400 mesh) for 3 min. The sample was rapidly wicked using filter paper without drying the grid and stained with 1% uranyl acetate for 2 min. […] Fibrils were counted from collections of 33 micrographs (in triplicate) for each experimental condition.

[3] = molecular target: T1, AD brain-derived tau fibrils; test: Western blot of insoluble tau after compound treatment; format: biochemical; settings: 72 h at 37 °C
Method: Proteins were transferred from gel to nitrocellulose membrane using an iBLOT2 system. The membrane was blocked for 1 h in TBST with 5% milk and washed with TBST three times. The membrane was then incubated with primary antibody (anti-tau A0024 (Dako), 1:4000 dilution in 2% milk/TBST solution) for 1 h, washed three times with TBST, incubated with horseradish peroxidase-conjugated secondary antibody (goat anti-mouse IgG H and L (HRP); 1:5000 Dilution in 2% milk/TBST), and washed three times in TBST.

[4] = MTT cytotoxicity assay; format: cell-based; settings: mouse, Neuro2a cells, Neuro2a; final small molecule concentration 10 µM; 24 h; vehicle = 100% viable; individual replicates; read-out: MTT cell viability, compound alone, Fig. 3f
Method: (§1) In all, 90 µL of Neuro2a cells were plated on clear 96 well plates (Falcon 353072) at 6000 cells per well and given 24 h to adhere to the plate. Subsequent treatment consisted of PHF samples that were co-incubated with or without 100 µM of small molecules for 48 h at 37 °C, with 10 µl applied per well for a final small molecule concentration of 10 µM. After another 24-h incubation at 37 °C, 20 µl of Thiazolyl Blue Tetrazolium Bromide MTT dye (Sigma; 5 mg/ml stock in DPBS) was added to each well and further incubated for 3.5 h at 37 °C. The assay was arrested by replacement of all media with 100% DMSO and transferred to a SpectraMax MF reader. Background 700 nm readings were subtracted from the absorbance readings at 570 nm. Cells treated with 100% DMSO were designated as 0% viable and those treated only with vehicle were designated as 100% viable. Other well readings were normalized to these values.

[5] = system: Neuro2a cells; test: MTT cytotoxicity assay; format: cell-based
Method: as §1

[6] = molecular target: Brain-derived tau PHFs (Homo sapiens, UniProt P10636); test: Dot blot analysis of EGCG time course (GT38, AT8); format: biochemical; settings: for GT38 dot blot signal (AD tau aggregates), Supp. Fig. 1 / AT8 dot blot signal (total hyperphosphorylated tau), Supp. Fig. 1: replicates
Method: Samples were spotted onto nitrocellulose membrane, 20 µl were spotted for each condition, spotting 2 µl at a time and allowing to dry in between. The membrane was blocked for 1 h in TBST with 5% milk and washed with TBST three times. The membrane was then incubated with primary antibody (either anti-tau GT38 (obtained from Virginia Lee lab at UPenn) or anti-phospho-tau AT8 (cat # MN1020, lot # UL2906281Z), 1:4000 dilution in 2% milk/TBST solution) for 1 h, washed three times with TBST, incubated with horseradish peroxidase-conjugated secondary antibody (goat anti-mouse IgG H and L (HRP); 1:5000 Dilution in 2% milk/TBST), and washed three times in TBST. Signal was detected with Pierce ECL Plus Western Blotting Substrate (cat # 32132), and the blot was imaged with a Pharos FX Plus Molecular Imager.

[7] = molecular target: AD-tau PHF (Homo sapiens, UniProt P10636); test: CryoEM occupancy analysis of EGCG density; format: binding; settings: for Occupancy of density at Site 1 relative to fibril backbone / Occupancy of density at Site 2 relative to fibril backbone / Occupancy of density at Site 3 relative to fibril backbone: map low-pass filtered to 7 Å
[8] = system: biosensor cells (HEK293T); test: Toxicity to biosensor cells under seeding assay conditions; format: cell-based; settings: under the assayed conditions (10 μM screen)
Method: HEK293T cell lines stably expressing tau-K18 P301S-eYFP were obtained from Marc Diamond[25] and used without further characterization or authentication. Cells were maintained in DMEM (Life Technologies, cat. 11965092) supplemented with 10% (vol/vol) FBS (Life Technologies, cat. A3160401), 1% penicillin/streptomycin (Life Technologies, cat. 15140122), and 1% Glutamax (Life Technologies, cat. 35050061) at 37 °C, 5% CO2 in a humidified incubator. […] Inhibitors were dissolved in DMSO. For seeding, inhibitor-treated seeds were sonicated in a cuphorn water bath for 3 min, and then mixed with 1 volume of […] (Life Technologies, cat. 11668027) prepared by diluting 1 µl of Lipofectamine in 19 µl of OptiMEM. After twenty minutes, 10 µl of fibrils were added to 90 µl of tau biosensor cells. The number of seeded aggregates was determined by imaging the entire well of a 96-well plate in triplicate using a Celigo Image Cytometer (Nexcelom) in the YFP channel. The number of aggregates in a given image was determined using an ImageJ 2.3.0[50] script, which subtracts the background fluorescence from unseeded cells, and then counts the number of aggregates as peaks with fluorescence above the background using the built-in Particle Analyzer. […]

Chain of crude AD brain extracts (tau seeds) in HEK293T tau biosensor cells (P10636 623-695 limits assumed): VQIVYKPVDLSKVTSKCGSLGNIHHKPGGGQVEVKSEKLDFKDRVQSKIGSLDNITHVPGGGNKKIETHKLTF
T1 sequence (P10636 623-695 limits assumed): as above
Chain of Brain-derived tau PHFs (P10636 623-695 limits assumed): as above
Chain of AD-tau PHF (P10636 623-697 limits assumed): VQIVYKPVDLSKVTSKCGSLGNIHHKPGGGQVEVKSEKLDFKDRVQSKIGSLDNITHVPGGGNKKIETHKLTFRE

**Q.** Which “Number of seeded aggregates in tau biosensor cells (normalized to confluence), Fig. 2e” value ([1]; listed as EGCG-PBS) does the source give for O=C(O[C@@H]1Cc2c(O)cc(O)cc2O[C@@H]1c1cc(O)c(O)c(O)c1)c1cc(O)c(O)c(O)c1 [EGCG, Epigallocatechin gallate] here?
**A.** 1.145 and 4.487 and 178.587

**Q.** What about the “Inhibition of seeding in biosensor cells” value [1] of the same molecule?
**A.** prevents the formation of any seeds

**Q.** And the “Electron microscopy of tau fibrils treated with compound (qualitative)” value ([2]; negative stain EM)?
**A.** nearly gone after 24 h of incubation

**Q.** And the “Quantitation of fibril number on EM images (qEM), Fig. 3c” value ([2]; relative scale, fibrils alone about 1, individual replicates of 33 micrographs)?
**A.** 0 and 0.009982

**Q.** What about the “Reduction of insoluble tau by Western blot” value [3] of the same molecule?
**A.** substantially reduce the amount of insoluble tau

**Q.** And the viability at 24 h, 10 µM [4]?
**A.** 102%

**Q.** What about the “Neuronal cytotoxicity of compound” value ([5]; Neuro 2a (N2a) cells, MTT) of the same molecule?
**A.** no significant cytotoxicity

**Q.** And the “MTT cell viability, compound alone, Fig. 3f” value ([5]; Neuro2a, final small molecule concentration 10 µM, 24 h, vehicle = 100% viable, individual replicates, 10 µM)?
**A.** 108.947% and 94.1622%

**Q.** What about the “Time at which reduction in aggregate level begins (GT38 dot blot)” value ([6]; 37 °C) of the same molecule?
**A.** 1 to 3 h

**Q.** And the “GT38 dot blot signal (AD tau aggregates), Supp. Fig. 1” value (shortened to “GT38 dot blot signal”) ([6]; EGCG incubation 1 h at 37 °C, relative to 0 h)?
**A.** 0.7905 and 0.6952 and 0.7857

**Q.** What about the “AT8 dot blot signal (total hyperphosphorylated tau), Supp. Fig. 1” value (shortened to “AT8 dot blot signal”) ([6]; EGCG incubation 1 h at 37 °C) of the same molecule?
**A.** 0.7495 and 1.415 and 0.8474

**Q.** What about the “AT8 dot blot signal” value ([6]; EGCG incubation 3 h at 37 °C) of the same molecule?
**A.** 1.189 and 1.169 and 0.7844

**Q.** And the “GT38 dot blot signal” value ([6]; EGCG incubation 3 h at 37 °C)?
**A.** 0.6381 and 0.5905 and 0.6857

**Q.** And the “AT8 dot blot signal” value ([6]; EGCG incubation 6 h at 37 °C)?
**A.** 1.107 and 1.408 and 0.8471

**Q.** What about the “GT38 dot blot signal” value ([6]; EGCG incubation 6 h at 37 °C) of the same molecule?
**A.** 0.3571 and 0.3381 and 0.6238

**Q.** What about the “AT8 dot blot signal” value ([6]; EGCG incubation 24 h at 37 °C) of the same molecule?
**A.** 1.122 and 1.203 and 1.059

**Q.** What about the “GT38 dot blot signal” value ([6]; EGCG incubation 24 h at 37 °C) of the same molecule?
**A.** 0.2286 and 0.2714 and 0.4143

**Q.** And the “Occupancy of density at Site 1 relative to fibril backbone” value ([7]; 1-hour EGCG)?
**A.** 43%

**Q.** What about the “Occupancy of density at Site 2 relative to fibril backbone” value ([7]; 1-hour EGCG) of the same molecule?
**A.** 44%

**Q.** What about the “Occupancy of density at Site 3 relative to fibril backbone” value ([7]; 1-hour EGCG) of the same molecule?
**A.** 54%

**Q.** What about the “Occupancy of EGCG at Site 1” value ([7]; 3-h structure) of the same molecule?
**A.** 66%

**Q.** What about the “Occupancy of density at Site 1 relative to fibril backbone” value ([7]; 3 hr. EGCG) of the same molecule?
**A.** 67%

**Q.** What about the “Occupancy of density at Site 2 relative to fibril backbone” value ([7]; 3 hr. EGCG) of the same molecule?
**A.** 56%

**Q.** And the “Occupancy of density at Site 3 relative to fibril backbone” value ([7]; 3 hr. EGCG)?
**A.** 62%

**Q.** Which results are given for Oc1cccc(-c2c3nc(c(-c4cccc(O)c4)c4ccc([nH]4)c(-c4cccc(O)c4)c4nc(c(-c5cccc(O)c5)c5ccc2[nH]5)CC4)C=C3)c1 [FDA-A4, Temoporfin]?
**A.** Number of seeded aggregates in tau biosensor cells (normalized to confluence), Fig. 2e [1]: 356.976 and 1174.27 and 1749.15; Inhibition of seeding in biosensor cells [1]: effective inhibitor; Toxicity to biosensor cells [8]: toxic to biosensor cells
